# Reference: PubChem BioAssay (NCI)
#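 Dose response: 5 concentrations. Exposure: 48 h. Format: 96-well plates. Endpoint: linear interpolation; highest concentration if not reached. TGI: total growth inhibition.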
# What was measured:
# Assay in all cases: NCI-60 cell line screen, 48 h
# 786-0 renal = tested on: 786-0 renal
# A498 renal = tested on: A498 renal
# A549 NSCLC = tested on: A549 NSCLC
# ACHN renal = tested on: ACHN renal
# BT-549 breast = tested on: BT-549 breast
# CAKI-1 renal = tested on: CAKI-1 renal
# CCRF-CEM leukemia = tested on: CCRF-CEM leukemia
# COLO 205 colon = tested on: COLO 205 colon
# DLD-1 colon = tested on: DLD-1 colon
# DMS 114 small cell lung = tested on: DMS 114 small cell lung
# DMS 273 small cell lung = tested on: DMS 273 small cell lung
# DU-145 prostate = tested on: DU-145 prostate
# EKVX NSCLC = tested on: EKVX NSCLC
# HCC-2998 colon = tested on: HCC-2998 colon
# HCT-116 colon = tested on: HCT-116 colon
# HCT-15 colon = tested on: HCT-15 colon
# HL-60(TB) leukemia = tested on: HL-60(TB) leukemia
# HOP-18 NSCLC = tested on: HOP-18 NSCLC
# HOP-62 NSCLC = tested on: HOP-62 NSCLC
# HOP-92 NSCLC = tested on: HOP-92 NSCLC
# HS 578T breast = tested on: HS 578T breast
# HT29 colon = tested on: HT29 colon
# IGROV1 ovarian = tested on: IGROV1 ovarian
# K-562 leukemia = tested on: K-562 leukemia
# KM12 colon = tested on: KM12 colon
# KM20L2 colon = tested on: KM20L2 colon
# LOX IMVI melanoma = tested on: LOX IMVI melanoma
# LXFL 529 NSCLC = tested on: LXFL 529 NSCLC
# M14 melanoma = tested on: M14 melanoma
# M19-MEL melanoma = tested on: M19-MEL melanoma
# MALME-3M melanoma = tested on: MALME-3M melanoma
# MCF7 breast = tested on: MCF7 breast
# MDA-MB-435 = tested on: MDA-MB-435
# MOLT-4 leukemia = tested on: MOLT-4 leukemia
# NCI-H226 lung = tested on: NCI-H226 lung
# NCI-H23 lung = tested on: NCI-H23 lung
# NCI-H460 lung = tested on: NCI-H460 lung
# NCI-H522 lung = tested on: NCI-H522 lung
# OVCAR-3 ovarian = tested on: OVCAR-3 ovarian
# OVCAR-4 ovarian = tested on: OVCAR-4 ovarian
# OVCAR-5 ovarian = tested on: OVCAR-5 ovarian
# OVCAR-8 ovarian = tested on: OVCAR-8 ovarian
# RPMI-8226 leukemia = tested on: RPMI-8226 leukemia
# SF-268 CNS = tested on: SF-268 CNS
# SF-295 CNS = tested on: SF-295 CNS
# SF-539 CNS = tested on: SF-539 CNS
# SK-MEL-2 melanoma = tested on: SK-MEL-2 melanoma
# SK-MEL-28 melanoma = tested on: SK-MEL-28 melanoma
# SK-MEL-5 melanoma = tested on: SK-MEL-5 melanoma
# SK-OV-3 ovarian = tested on: SK-OV-3 ovarian
# SN12C renal = tested on: SN12C renal
# SNB-19 CNS = tested on: SNB-19 CNS
# SNB-75 CNS = tested on: SNB-75 CNS
# SNB-78 CNS = tested on: SNB-78 CNS
# SR leukemia = tested on: SR leukemia
# SW-620 colon = tested on: SW-620 colon
# T-47D breast = tested on: T-47D breast
# TK-10 renal = tested on: TK-10 renal
# U251 CNS = tested on: U251 CNS
# UACC-257 melanoma = tested on: UACC-257 melanoma
# UACC-62 melanoma = tested on: UACC-62 melanoma
# UO-31 renal = tested on: UO-31 renal
# XF 498 CNS = tested on: XF 498 CNS
# RXF 393 renal = tested on: RXF 393 renal
structure (smiles),measurement,setting,value
O=C(O)COc1ccc(C(=O)/C(SS/C(C(=O)c2ccc(OCC(=O)O)c(Cl)c2Cl)=C2\C=C(c3ccc(F)cc3)SS2)=C2/C=C(c3ccc(F)cc3)SS2)c(Cl)c1Cl,TGI,786-0 renal,> 57 µM
same,TGI,A498 renal,77.5 µM
same,TGI,A549 NSCLC,> 93.4 µM
same,TGI,ACHN renal,56 µM
same,TGI,BT-549 breast,71.5 µM
same,TGI,CAKI-1 renal,> 77.9 µM
same,TGI,CCRF-CEM leukemia,18.1 µM
same,TGI,COLO 205 colon,25 µM
same,TGI,DLD-1 colon,> 53.7 µM
same,TGI,DMS 114 small cell lung,12.7 µM
same,TGI,DMS 273 small cell lung,27.9 µM
same,TGI,DU-145 prostate,> 100 µM
same,TGI,EKVX NSCLC,> 81.4 µM
same,TGI,HCC-2998 colon,> 100 µM
same,TGI,HCT-116 colon,25.6 µM
same,TGI,HCT-15 colon,28.3 µM
same,TGI,HL-60(TB) leukemia,6.03 µM
same,TGI,HOP-18 NSCLC,43.6 µM
same,TGI,HOP-62 NSCLC,> 84.8 µM
same,TGI,HOP-92 NSCLC,15.4 µM
same,TGI,HS 578T breast,19 µM
same,TGI,HT29 colon,70.6 µM
same,TGI,IGROV1 ovarian,41.7 µM
same,TGI,K-562 leukemia,32.6 µM
same,TGI,KM12 colon,32.6 µM
same,TGI,KM20L2 colon,> 95.8 µM
same,TGI,LOX IMVI melanoma,12.9 µM
same,TGI,LXFL 529 NSCLC,13.6 µM
same,TGI,M14 melanoma,54.8 µM
same,TGI,M19-MEL melanoma,44.6 µM
same,TGI,MALME-3M melanoma,77.3 µM
same,TGI,MCF7 breast,> 100 µM
same,TGI,MDA-MB-435,> 100 µM
same,TGI,MOLT-4 leukemia,31.2 µM
same,TGI,NCI-H226 lung,40.4 µM
same,TGI,NCI-H23 lung,33.7 µM
same,TGI,NCI-H460 lung,49.1 µM
same,TGI,NCI-H522 lung,8.44 µM
same,TGI,OVCAR-3 ovarian,20.7 µM
same,TGI,OVCAR-4 ovarian,40.3 µM
same,TGI,OVCAR-5 ovarian,74.7 µM
same,TGI,OVCAR-8 ovarian,55.8 µM
same,TGI,RPMI-8226 leukemia,31.5 µM
same,TGI,SF-268 CNS,23.1 µM
same,TGI,SF-295 CNS,69.8 µM
same,TGI,SF-539 CNS,26.9 µM
same,TGI,SK-MEL-2 melanoma,34.7 µM
same,TGI,SK-MEL-28 melanoma,38.8 µM
same,TGI,SK-MEL-5 melanoma,51.5 µM
same,TGI,SK-OV-3 ovarian,> 88.7 µM
same,TGI,SN12C renal,38.7 µM
same,TGI,SNB-19 CNS,53.7 µM
same,TGI,SNB-75 CNS,27.4 µM
same,TGI,SNB-78 CNS,43.1 µM
same,TGI,SR leukemia,13.4 µM
same,TGI,SW-620 colon,36.3 µM
same,TGI,T-47D breast,31.3 µM
same,TGI,TK-10 renal,99.2 µM
same,TGI,U251 CNS,24.7 µM
same,TGI,UACC-257 melanoma,68.8 µM
same,TGI,UACC-62 melanoma,23.9 µM
same,TGI,UO-31 renal,36.4 µM
same,TGI,XF 498 CNS,27 µM
COC(=O)[C@@]12C(=O)CCC(=O)C1C1C(=CC2C)O[C@@H]2OC3(CCCCC3)O[C@H]12 (stereo partly specified),TGI,786-0 renal,> 100 µM
same,TGI,A498 renal,> 100 µM
same,TGI,A549 NSCLC,> 100 µM
same,TGI,ACHN renal,> 100 µM
same,TGI,CAKI-1 renal,> 100 µM
same,TGI,CCRF-CEM leukemia,> 81 µM
same,TGI,COLO 205 colon,> 100 µM
same,TGI,DLD-1 colon,> 100 µM
same,TGI,DMS 114 small cell lung,> 100 µM
same,TGI,DMS 273 small cell lung,> 100 µM
same,TGI,EKVX NSCLC,> 100 µM
same,TGI,HCC-2998 colon,> 100 µM
same,TGI,HCT-116 colon,> 100 µM
same,TGI,HCT-15 colon,> 100 µM
same,TGI,HL-60(TB) leukemia,59.1 µM
same,TGI,HOP-18 NSCLC,> 100 µM
same,TGI,HOP-62 NSCLC,> 100 µM
same,TGI,HOP-92 NSCLC,> 100 µM
same,TGI,HT29 colon,> 100 µM
same,TGI,IGROV1 ovarian,> 100 µM
same,TGI,K-562 leukemia,> 100 µM
same,TGI,KM12 colon,> 100 µM
same,TGI,KM20L2 colon,> 100 µM
same,TGI,LOX IMVI melanoma,> 100 µM
same,TGI,LXFL 529 NSCLC,> 100 µM
same,TGI,M14 melanoma,> 100 µM
same,TGI,M19-MEL melanoma,> 100 µM
same,TGI,MALME-3M melanoma,> 100 µM
same,TGI,MOLT-4 leukemia,70.5 µM
same,TGI,NCI-H226 lung,> 100 µM
same,TGI,NCI-H23 lung,> 100 µM
same,TGI,NCI-H460 lung,> 100 µM
same,TGI,NCI-H522 lung,38.1 µM
same,TGI,OVCAR-3 ovarian,> 100 µM
same,TGI,OVCAR-4 ovarian,> 100 µM
same,TGI,OVCAR-5 ovarian,> 100 µM
same,TGI,OVCAR-8 ovarian,> 80.2 µM
same,TGI,RPMI-8226 leukemia,83.2 µM
same,TGI,RXF 393 renal,> 100 µM
same,TGI,SF-268 CNS,> 100 µM
same,TGI,SF-295 CNS,> 100 µM
same,TGI,SF-539 CNS,> 100 µM
same,TGI,SK-MEL-2 melanoma,> 100 µM
same,TGI,SK-MEL-28 melanoma,> 100 µM
same,TGI,SK-MEL-5 melanoma,> 100 µM
same,TGI,SK-OV-3 ovarian,> 100 µM
same,TGI,SN12C renal,> 100 µM
same,TGI,SNB-19 CNS,> 100 µM
same,TGI,SNB-75 CNS,> 100 µM
same,TGI,SNB-78 CNS,> 100 µM
same,TGI,SR leukemia,58.8 µM
same,TGI,SW-620 colon,> 100 µM
same,TGI,TK-10 renal,> 100 µM
same,TGI,U251 CNS,> 100 µM
same,TGI,UACC-257 melanoma,> 100 µM
same,TGI,UACC-62 melanoma,> 100 µM
same,TGI,UO-31 renal,> 100 µM
same,TGI,XF 498 CNS,> 93.6 µM
